US20160122320A1, “USEFUL COMBINATIONS OF MONOBACTAM ANTIBIOTICS WITH BETA-LACTAMASE INHIBITORS” (Basilea Pharmaceutica AG, priority 2005, published 2016)
Structures can show the parent of a compound that is named as a salt. Blank lines part the entries; values can stand above or below the compound they belong to.

Tests used:
Assay in all cases: MIC, NCCLS broth microdilution
Format in all cases: cell-based
Acinetobacter sp. J2 = details: for MIC of antibiotic at fixed inhibitor concentration (4 mg/L): Acinetobacter sp. J2, MIC of antibiotic compound 1 with the labelled bridged monobactam of formula II and clavulanate, 4 mg/L each
[1] = system: Pseudomonas aeruginosa MK1184; details: for MIC of antibiotic at fixed inhibitor concentration (4 mg/L): MIC of antibiotic compound 1 with the labelled bridged monobactam of formula II and clavulanate, 4 mg/L each
[2] = system: Pseudomonas aeruginosa 1973E; details: for MIC of antibiotic at fixed inhibitor concentration (4 mg/L): MIC of antibiotic compound 1 with the labelled bridged monobactam of formula II and clavulanate, 4 mg/L each
In short: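 Growth inhibition read by eye after overnight incubation (30° C. or 37° C.) defines the MIC, using NCCLS M7-A5 broth microdilution with ≤1% DMSO. When combinations were tested, only the formula I compound was titrated and each partner was fixed at 4 μg/mL.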

Enterobacter cloacae P99 = details: for MIC of antibiotic at fixed inhibitor concentration (4 mg/L): MIC of antibiotic compound 1 with the labelled bridged monobactam of formula II and clavulanate, 4 mg/L each
[3] = system: Klebsiella pneumoniae CF104; details: for MIC of antibiotic at fixed inhibitor concentration (4 mg/L): MIC of antibiotic compound 1 with the labelled bridged monobactam of formula II and clavulanate, 4 mg/L each
Serratia marcescens S6 = details: for MIC of antibiotic at fixed inhibitor concentration (4 mg/L): MIC of antibiotic compound 1 with the labelled bridged monobactam of formula II and clavulanate, 4 mg/L each
[4] = system: Stenotrophomonas malthophilia 1AC736; details: for MIC of antibiotic at fixed inhibitor concentration (4 mg/L): Stenotrophomonas malthophilia 1AC736, MIC of antibiotic compound 1 with the labelled bridged monobactam of formula II and clavulanate, 4 mg/L each

Structure (SMILES): NC(=O)OCC1C(NC(=O)C(=NOCc2cc(=O)c(O)cn2O)c2csc(N)n2)C(=O)N1OCC(=O)O (centres unmarked) [Compound 41]
MIC of antibiotic (Acinetobacter sp. J2; Acinetobacter baumannii J2, antibiotic alone, no inhibitor): 16 µg/mL
MIC of antibiotic at fixed inhibitor concentration of 4 mg/L (Acinetobacter sp. J2; Acinetobacter baumannii J2, with 102 and clavulanate): 16 µg/mL
MIC of antibiotic at fixed inhibitor concentration of 4 mg/L (Acinetobacter sp. J2; Acinetobacter baumannii J2, with 324 and clavulanate): 4 µg/mL
MIC of antibiotic ([1]; antibiotic alone, no inhibitor): 4 µg/mL
MIC of antibiotic at fixed inhibitor concentration of 4 mg/L ([1]; with 102 and clavulanate): 4 µg/mL
MIC of antibiotic at fixed inhibitor concentration of 4 mg/L ([1]; with 324 and clavulanate): 4 µg/mL
MIC of antibiotic ([2]; antibiotic alone, no inhibitor): 4 µg/mL
MIC of antibiotic at fixed inhibitor concentration of 4 mg/L ([2]; with 102 and clavulanate): 4 µg/mL
MIC of antibiotic at fixed inhibitor concentration of 4 mg/L ([2]; with 324 and clavulanate): 8 µg/mL
MIC of antibiotic (Enterobacter cloacae P99; antibiotic alone, no inhibitor): >32 µg/mL
MIC of antibiotic at fixed inhibitor concentration of 4 mg/L (Enterobacter cloacae P99; with 102 and clavulanate): 16 µg/mL
MIC of antibiotic at fixed inhibitor concentration of 4 mg/L (Enterobacter cloacae P99; with 324 and clavulanate): 16 µg/mL
MIC of antibiotic ([3]; antibiotic alone, no inhibitor): >32 µg/mL
MIC of antibiotic at fixed inhibitor concentration of 4 mg/L ([3]; with 102 and clavulanate): 0.5 µg/mL
MIC of antibiotic at fixed inhibitor concentration of 4 mg/L ([3]; with 324 and clavulanate): 0.5 µg/mL
MIC of antibiotic (Serratia marcescens S6; antibiotic alone, no inhibitor): 1 µg/mL
MIC of antibiotic at fixed inhibitor concentration of 4 mg/L (Serratia marcescens S6; with 102 and clavulanate): 0.5 µg/mL
MIC of antibiotic at fixed inhibitor concentration of 4 mg/L (Serratia marcescens S6; with 324 and clavulanate): 0.5 µg/mL
MIC of antibiotic ([4]; Stenotrophomonas maltophilia 1AC736, antibiotic alone, no inhibitor): 1 µg/mL
MIC of antibiotic at fixed inhibitor concentration of 4 mg/L ([4]; Stenotrophomonas maltophilia 1AC736, with 102 and clavulanate): 2 µg/mL
MIC of antibiotic at fixed inhibitor concentration of 4 mg/L ([4]; Stenotrophomonas maltophilia 1AC736, with 324 and clavulanate): 1 µg/mL

Structure (SMILES): O=C(C[n+]1ccccc1)Nc1ccc(SCC(=O)N2CC[C@@H]3[C@H]2C(=O)N3S(=O)(=O)[O-])cc1 [Compound 204, (1S,5R)-7-oxo-2-{2-[4-(2-pyridiniumacetylamino)phenylthio]acetyl}-2,6-diazabicyclo[3.2.0]heptane-6-sulfonate, inner salt]
MIC of antibiotic at fixed inhibitor concentration (4 mg/L) (Acinetobacter sp. J2): 2 µg/mL
MIC of antibiotic at fixed inhibitor concentration (4 mg/L) [1]: 32 µg/mL
MIC of antibiotic at fixed inhibitor concentration (4 mg/L) [2]: 4 µg/mL
MIC of antibiotic at fixed inhibitor concentration (4 mg/L) (Enterobacter cloacae P99): 8 µg/mL
MIC of antibiotic at fixed inhibitor concentration (4 mg/L) [3]: 2 µg/mL
MIC of antibiotic at fixed inhibitor concentration (4 mg/L) (Serratia marcescens S6): 0.25 µg/mL
MIC of antibiotic at fixed inhibitor concentration (4 mg/L) [4]: 8 µg/mL

Next, values leading:

MIC of antibiotic at fixed inhibitor concentration (4 mg/L) (Acinetobacter sp. J2): 4 µg/mL
MIC of antibiotic at fixed inhibitor concentration (4 mg/L) [1]: >32 µg/mL
MIC of antibiotic at fixed inhibitor concentration (4 mg/L) [2]: 4 µg/mL
MIC of antibiotic at fixed inhibitor concentration (4 mg/L) (Enterobacter cloacae P99): 8 µg/mL
MIC of antibiotic at fixed inhibitor concentration (4 mg/L) [3]: 1 µg/mL
MIC of antibiotic at fixed inhibitor concentration (4 mg/L) (Serratia marcescens S6): 0.25 µg/mL
MIC of antibiotic at fixed inhibitor concentration (4 mg/L) [4]: 0.125 µg/mL
Structure (SMILES): NC(=O)Nc1ccc(NC(=O)N2CC[C@@H]3[C@H]2C(=O)N3S(=O)(=O)[O-])cc1.[Na+] [Compound 315]

MIC of antibiotic at fixed inhibitor concentration (4 mg/L) (Acinetobacter sp. J2): >32 µg/mL
MIC of antibiotic at fixed inhibitor concentration (4 mg/L) [1]: >32 µg/mL
MIC of antibiotic at fixed inhibitor concentration (4 mg/L) [2]: 8 µg/mL
MIC of antibiotic at fixed inhibitor concentration (4 mg/L) (Enterobacter cloacae P99): 32 µg/mL
MIC of antibiotic at fixed inhibitor concentration (4 mg/L) [3]: 1 µg/mL
MIC of antibiotic at fixed inhibitor concentration (4 mg/L) (Serratia marcescens S6): 0.5 µg/mL
MIC of antibiotic at fixed inhibitor concentration (4 mg/L) [4]: 0.125 µg/mL
Structure (SMILES): C[N+]1(CC(=O)N2CC[C@@H]3[C@H]2C(=O)N3S(=O)(=O)[O-])CCN(C(=O)n2ccnc2)CC1 [Compound 407, (1S,5R)-2-{2-[4-(imidazolylcarbonyl)-1-methylpiperazinium]acetyl}-7-oxo-2,6-diazabicyclo[3.2.0]heptane-6-sulfonate, inner salt]

MIC of antibiotic at fixed inhibitor concentration (4 mg/L) (Acinetobacter sp. J2): 4 µg/mL
MIC of antibiotic at fixed inhibitor concentration (4 mg/L) [1]: >32 µg/mL
MIC of antibiotic at fixed inhibitor concentration (4 mg/L) [2]: 4 µg/mL
MIC of antibiotic at fixed inhibitor concentration (4 mg/L) (Enterobacter cloacae P99): 32 µg/mL
MIC of antibiotic at fixed inhibitor concentration (4 mg/L) [3]: 1 µg/mL
MIC of antibiotic at fixed inhibitor concentration (4 mg/L) (Serratia marcescens S6): 0.25 µg/mL
MIC of antibiotic at fixed inhibitor concentration (4 mg/L) [4]: 0.125 µg/mL
Structure (SMILES): O=C(NCc1cccs1)N1CC[C@@H]2[C@H]1C(=O)N2S(=O)(=O)[O-].[Na+] [Compound 314]

MIC of antibiotic at fixed inhibitor concentration (4 mg/L) (Acinetobacter sp. J2): >32 µg/mL
MIC of antibiotic at fixed inhibitor concentration (4 mg/L) [1]: >32 µg/mL
MIC of antibiotic at fixed inhibitor concentration (4 mg/L) [2]: 4 µg/mL
MIC of antibiotic at fixed inhibitor concentration (4 mg/L) (Enterobacter cloacae P99): 4 µg/mL
MIC of antibiotic at fixed inhibitor concentration (4 mg/L) [3]: 4 µg/mL
MIC of antibiotic at fixed inhibitor concentration (4 mg/L) (Serratia marcescens S6): 0.25 µg/mL
MIC of antibiotic at fixed inhibitor concentration (4 mg/L) [4]: 0.25 µg/mL
Structure (SMILES): NC(=O)c1cccc(NC(=O)N2CC[C@@H]3[C@H]2C(=O)N3S(=O)(=O)[O-])c1.[Na+] [Compound 305]
